Test results from patent US4788202A, “Sulphonamide derivatives as α2 -adrenoceptor antagonists” (John Wyeth & Brother Limited, priority 1985, dated 1988).

What was measured:
α1 -adrenoceptor = target: T1, α1 -adrenoceptor (Rattus norvegicus, UniProt P43140); assay: α1-adrenoceptor antagonist activity by a method based on that of Gillespie; conditions: as described in GB 2136804A, read-out: pA2 for α1 -adrenoceptor antagonistic activity (converted)
T1 construct: method based on that of Gillespie Br. J. Pharmac 1972, 45 404-416; from tissue
T1 sequence (P43140 1-466): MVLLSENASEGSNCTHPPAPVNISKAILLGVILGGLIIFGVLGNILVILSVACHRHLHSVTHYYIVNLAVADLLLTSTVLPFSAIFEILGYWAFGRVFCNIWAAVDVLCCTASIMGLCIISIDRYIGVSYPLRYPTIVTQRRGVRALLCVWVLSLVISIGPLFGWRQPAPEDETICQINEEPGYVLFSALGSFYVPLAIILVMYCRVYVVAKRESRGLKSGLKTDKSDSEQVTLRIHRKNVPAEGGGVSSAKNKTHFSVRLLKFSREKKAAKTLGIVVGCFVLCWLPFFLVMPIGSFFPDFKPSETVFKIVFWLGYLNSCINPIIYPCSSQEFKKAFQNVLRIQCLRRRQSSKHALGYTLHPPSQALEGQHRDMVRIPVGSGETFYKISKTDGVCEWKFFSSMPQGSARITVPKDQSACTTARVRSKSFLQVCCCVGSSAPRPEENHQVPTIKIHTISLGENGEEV
From the text: (§1) The compounds of the invention may be tested for α2 -adrenoceptor antagonistic activity on the rat field stimulated vas deferens preparation using a modification of the method of Drew, Eur. J. Pharmac., 1977,42, 123-130 as described in our GB patent No. 2136804A Specification and for the α1 -antagonist activity by the method based on that of Gillespie Br. J. Pharmac 1972, 45 404-416, as also described in GB patent specification No. 2136804A.

α2 -adrenoceptor = target: T2, α2 -adrenoceptor (Rattus norvegicus, UniProt P22909); assay: α2-adrenoceptor antagonistic activity on the rat field stimulated vas deferens preparation (modified method of Drew)
T2 construct: rat field stimulated vas deferens preparation; from tissue; host or cells: rat vas deferens, field stimulated
T2 sequence (P22909 1-465): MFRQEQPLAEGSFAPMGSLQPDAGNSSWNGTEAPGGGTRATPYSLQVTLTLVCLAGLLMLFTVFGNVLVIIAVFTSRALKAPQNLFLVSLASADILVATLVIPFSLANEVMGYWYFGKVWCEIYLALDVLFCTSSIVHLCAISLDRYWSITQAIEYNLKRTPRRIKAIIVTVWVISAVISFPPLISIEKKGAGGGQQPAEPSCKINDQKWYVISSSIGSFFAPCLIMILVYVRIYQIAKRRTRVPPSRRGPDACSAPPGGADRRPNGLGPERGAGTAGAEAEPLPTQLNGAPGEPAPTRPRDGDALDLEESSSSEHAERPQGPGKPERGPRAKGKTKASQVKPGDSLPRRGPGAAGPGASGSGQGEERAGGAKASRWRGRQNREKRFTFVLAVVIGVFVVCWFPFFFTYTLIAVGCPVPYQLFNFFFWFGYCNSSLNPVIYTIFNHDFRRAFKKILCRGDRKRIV
From the text: as §1

Kb (α1 -adrenoceptor): 275 nM
Kb (α2 -adrenoceptor; rat field stimulated vas deferens preparation, read-out: pA2 for α2 -adrenoceptor antagonist activity (converted)): 8.51 nM
α2 /α1 selectivity [antilog of (α2 pA2 - α1 pA1)] (α2 -adrenoceptor; ratio from α2 and α1 pA2 values): 32
SMILES: CS(=O)(=O)NCCN([C@@H]1CCN2CCc3c(oc4ccccc34)[C@@H]2C1)S(C)(=O)=O (relative stereo) [Example 2, N-[(2β,12bα)-1,3,4,6,7,12b-Hexahydro-2H-benzo[b]furo [2,3-a]quinolizin-2-yl]-N-(2-methanesulphonamidoethyl) methanesulphonamide]
